According to patent publication US20090325923A1, “NEW METHOD FOR THE TREATMENT OF INFLAMMATORY DISEASES” (TOPOTARGET SWITZERLAND SA, priority 2006, published 2009):

Experiments:
[1] = system: Human monocytic cell line THP-1; test: Intracellular NAD by enzymatic assay in THP-1 cells; format: cell-based
Procedure: The human THP-1 monocytic cell line was cultured in the presence of medium or FK866 and stimulated by LPS.

[2] = system: Human monocytic cell line THP-1; test: LPS-stimulated cytokine secretion by ELISA in THP-1 cells; format: cell-based
Procedure: (§1) Human monocytic cell line THP-1 was cultured overnight in the presence of graded doses of nicotinic acid (NA), a precursor of NAD, and then stimulated with lipopolysaccharide (LPS) from gram-negative bacteria for 2 h. The cell supernatant was tested for tumor necrosis factor (TNF) content by ELISA and the intracellular pool of NAD was measured by an enzymatic assay.
(§2) Human monocytic cell line THP-1, human peripheral blood mononuclear cells (PBMC), human monocyte-derived dendritic cells, or mouse peritoneal macrophages were isolated and cultured overnight with increasing doses of FK866, and then stimulated with LPS for 6 h. The culture supernatants were tested for TNF and IL-6 content by ELISA
THP-1 cells were incubated in the presence of 10 nM FK866 and graded doses of NMN. Cells were further stimulated with LPS and intracellular NAD levels and TNFα secretion were determined using standard assays.
as §1, with “This example illustrates the direct relationship between NAD levels in cells and pro-inflammatory cytokine secretion. Human” for “Human”, “of” for “of graded doses of”, “acid,” for “acid (NA),”
as §2, with “This example describes the inhibition of pro-inflammatory cytokines production by the competitive small molecular weight compound inhibitor of NMPRT, ((E)-N-[4-(1-benzoylpiperidin-4-yl)butyl]-3-(pyridin-3-yl)acrylamide, designated FK866). Human” for “Human”, “ELISA.” for “ELISA”
This example illustrates that NAMPT is the only molecular target of FK866. […]

[3] = system: collagen-induced arthritis; test: Collagen-induced arthritis (CIA) mouse model; format: in vivo; details: FK866 10 mg/kg ip twice daily or etanercept 15 mg/kg every three days, over 15 days
RAW264.7 cell line [4] = test: Intracellular NAD by enzymatic assay in RAW264.7 cells; format: cell-based, mouse; details: RAW264.7 cultured overnight with FK866 plus the added substance, LPS 2 h
Procedure: (§3) (A) The mouse macrophage cell line RAW264.7 was cultured overnight with increasing doses of FK866, and then stimulated with LPS for 2 h. The culture supernatants were tested for TNF content by ELISA and intracellular NAD levels were measured by an enzymatic assay.
(§4) (B) RAW264.7 cells were cultured overnight in the presence of FK866 and the intracellular pool of NAD was restored by co-incubation of the cells with nicotinic acid (NA). Cells were then stimulated with LPS for 2 h and the culture supernatant was tested for TNF content by ELISA.
(§5) (C) RAW264.7 cells were cultured overnight in the presence of FK866 and NAD levels were maintained by culturing the cells in the presence of extracellular NAD. Cells were then stimulated with LPS for 2 h and the culture supernatant was tested for TNF content by ELISA.
as §3, with “This example illustrates the correlation between proinflammatory cytokine secretion and NAD levels in the cell.” for “(A)”
as §4, with “In another experiment,” for “(B)”, “nicotinic acid. Nicotinic” for “nicotinic”, “is a precursor of NAD, but its transformation into NAD is not dependent upon NMPRT and is thus not inhibited by FK866.” for “(NA).”
(§6) In another experiment, RAW264.7 cells were cultured overnight in the presence of FK866 and NAD levels were maintained by culturing the cells in the presence: of extra-cellular NAD. Cells were then stimulated with LPS for 2 h and the culture supernatant was tested for TNF content by ELISA.

RAW264.7 cell line [5] = test: LPS-stimulated TNF secretion by ELISA in RAW264.7 cells; format: cell-based, mouse; details: RAW264.7 cultured overnight with FK866 plus the added substance, LPS 2 h
Procedure: The murine RAW264.7 cell line was stimulated with LPS in the presence of FK866. TNF protein concentrations were determined by ELISA (above panel) while mRNA levels were determined by RT-PCR (below panel).
as §3, §4, §5
This example illustrates that FK866 inhibits TNFα secretion at a posttranscriptional level. The murine RAW 264.7 cell line was incubated in the presence of graded doses of FK866, stimulated with microbial products, and levels of TNFα released in the supernatant evaluated by ELISA.
as §3, with “This example illustrates the correlation between proinflammatory cytokine secretion and NAD levels in the cell.” for “(A)”
as §4, with “In another experiment,” for “(B)”, “nicotinic acid. Nicotinic” for “nicotinic”, “is a precursor of NAD, but its transformation into NAD is not dependent upon NMPRT and is thus not inhibited by FK866.” for “(NA).”
as §6

[6] = THP-1, 10 nM FK866 and graded doses of NMN, LPS

NC(=O)c1ccc[n+]([C@@H]2O[C@H](COP(=O)([O-])O)[C@@H](O)[C@H]2O)c1 [nicotinamide mononucleotide (NMN), nicotinamide mononucleotide]
intracellular NAD levels despite exposure to FK866 [1, 6]: restored
TNFα production despite exposure to FK866 [2, 6]: restored

etanercept
severity of arthritis in CIA mice [3]: P<0.05 FK866 or etanercept versus placebo

O=C(O)c1cccnc1 [nicotinic acid]
intracellular NAD levels ([1]; THP-1 cultured overnight with graded doses of nicotinic acid, LPS 2 h): increased in parallel in a dose-dependent fashion
NAD levels in the presence of FK866 (RAW264.7 cell line [4]): maintained high levels of NAD
TNF synthesis in the presence of FK866 (RAW264.7 cell line [5]): restored
TNF secretion ([2]; THP-1 cultured overnight with graded doses of nicotinic acid, LPS 2 h, ELISA): increased in parallel in a dose-dependent fashion

NC(=O)c1ccc[n+]([C@@H]2O[C@H](COP(=O)([O-])OP(=O)(O)OC[C@H]3O[C@@H](n4cnc5c(N)ncnc54)[C@H](O)[C@@H]3O)[C@@H](O)[C@H]2O)c1 [NAD, nicotinamide adenyl dinucleotide]
NAD levels in the presence of FK866 (RAW264.7 cell line [4]): remained high
TNF synthesis in the presence of FK866 (RAW264.7 cell line [5]): restored
